What all share (assay type): cell-based
The test system of assay [1] is E. coli ATCC 25922 (NB27001). Description: MIC, broth microdilution (CLSI). The settings on record: Escherichia coli, read-out: Antibacterial activity (MIC) NB27001. A general note: In broth dilution the organism is exposed to a series of concentrations in liquid medium.
Assay [2] relates to S. aureus NB01006-AVR005 (gyrA S84L, grlA S80F, grlB E471K). The experiment in a line: microbe, parasite or virus in culture. The settings on record: Staphylococcus aureus, 20 h, read-out: Antibacterial activity (MIC) NB01006-AVR005.
Assay [3] deals with S. aureus ATCC 29213 (NB01001). The experiment in a line: MIC, broth microdilution (CLSI). The note with it: Staphylococcus aureus, read-out: Antibacterial activity (MIC) NB01001.
Assay [4] relates to P. aeruginosa NB52019 (wild-type PAO1). Description: MIC, broth microdilution (CLSI).
The test system of assay [5] is E. coli NB27177 (efflux deficient CGSC 11430, ΔtolC732::kan). The experiment in a line: microbe, parasite or virus in culture. The note with it: Escherichia coli, 20 h, read-out: Antibacterial activity (MIC) NB27177.
Assay [6] has as its system P. aeruginosa NB52023 (efflux deficient K1542, ΔmexX ΔmexB). The experiment in a line: microbe, parasite or virus in culture. The settings on record: Pseudomonas aeruginosa, 20 h, read-out: Antibacterial activity (MIC) NB52023.
Assay [7] relates to P. aeruginosa NB52023-CDK0006 (gyrA T83I, parC S87L). The experiment in a line: microbe, parasite or virus in culture. The settings on record: Pseudomonas aeruginosa, 20 h, read-out: Antibacterial activity (MIC) NB52023-CDK0006.
Setting [8] is: ATCC25922, E. coli ATCC 25922, 35° C., 20 hours.
Where [9] appears, read: ATCC29213, S. aureus ATCC 29213, 35° C., 20 hours.
Where [10] appears, read: Pseudomonas aeruginosa, PAO1, 20 h; read-out: Antibacterial activity (MIC) NB52019.

Molecules are shown by their SMILES. ≈ marks a conversion by molar mass, not a printed value. Where two headings read alike, the source gives them in different places.

Regarding `CCOC(=O)c1cc(=O)n(C2CC2)c2c(C)c(N3CC[C@@H]([C@H](C)N)C3)c(F)cc12` [Example 35, ethyl 7-((R)-3-((S)-1-aminoethyl)pyrrolidin-1-yl)-1-cyclopropyl-6-fluoro-8-methyl-2-oxo-1,2-dihydroquinoline-4-carboxylate], the MIC is 4 µg/mL (≈ 9.96 µM) in assay [1] (setting [8]); 0.06 µg/mL (≈ 0.149 µM) in assay [2]; 0.06 µg/mL (≈ 0.149 µM) in assay [3] (setting [9]); 8 µg/mL (≈ 19.9 µM) in assay [4] (setting [10]); below 0.03 µg/mL in assay [5]; 8 µg/mL (≈ 19.9 µM) in assay [6]. Besides, the MIC in assay [7] was 8 µg/mL (≈ 19.9 µM).

For `Cc1c(N2CC[C@@H]([C@H](C)N)C2)c(F)cc2c(N)cc(=O)n(C3CC3)c12` [Example 36, 4-amino-7-((R)-3-((S)-1-aminoethyl)pyrrolidin-1-yl)-1-cyclopropyl-6-fluoro-8-methylquinolin-2(1H)-one], the MIC is 16 µg/mL (≈ 46.5 µM) in assay [1] (setting [8]); 1 µg/mL (≈ 2.9 µM) in assay [2]; 2 µg/mL (≈ 5.81 µM) in assay [3] (setting [9]); above 16 µg/mL in assay [4] (setting [10]); 1 µg/mL (≈ 2.9 µM) in assay [5]; 16 µg/mL (≈ 46.5 µM) in assay [6]. Besides, the MIC in assay [7] was above 16 µg/mL.

Turning to `Cc1c(N2CC[C@@H]([C@H](C)N)C2)c(F)cc2c(NS(C)(=O)=O)cc(=O)n(C3CC3)c12` [Example 37, N-(7-((R)-3-((S)-1-aminoethyl)pyrrolidin-1-yl)-1-cyclopropyl-6-fluoro-8-methyl-2-oxo-1,2-dihydroquinolin-4-yl)methanesulfonamide], the MIC in assay [1] (setting [8]) is 32 µg/mL (≈ 75.7 µM); in assay [2], 16 µg/mL (≈ 37.9 µM); in assay [3] (setting [9]), 8 µg/mL (≈ 18.9 µM); in assay [4] (setting [10]), 32 µg/mL (≈ 75.7 µM); in assay [5], 4 µg/mL (≈ 9.47 µM); in assay [6], above 32 µg/mL. Besides, the MIC in assay [7] was above 32 µg/mL.

`Cc1c(N2CC[C@@H]([C@H](C)N)C2)c(F)cc2c(-c3noc(=O)[nH]3)cc(=O)n(C3CC3)c12` [Example 38, 3-(7-((R)-3-((S)-1-aminoethyl)pyrrolidin-1-yl)-1-cyclopropyl-6-fluoro-8-methyl-2-oxo-1,2-dihydroquinolin-4-yl)-1,2,4-oxadiazol-5(4H)-one]: the MIC is 32 µg/mL (≈ 77.4 µM) in assay [1] (setting [8]); 4 µg/mL (≈ 9.67 µM) in assay [2]; 4 µg/mL (≈ 9.67 µM) in assay [3] (setting [9]); above 32 µg/mL in assay [4] (setting [10]); 2 µg/mL (≈ 4.84 µM) in assay [5]; 32 µg/mL (≈ 77.4 µM) in assay [6]. Further, in assay [7], the MIC was above 32 µg/mL.

Turning to `Cc1c(N2CC[C@@H]([C@H](C)N)C2)c(F)cc2c(C(=N)NO)cc(=O)n(C3CC3)c12` [Example 40, 7-((R)-3-((S)-1-aminoethyl)pyrrolidin-1-yl)-1-cyclopropyl-6-fluoro-N-hydroxy-8-methyl-2-oxo-1,2-dihydroquinoline-4-carboximidamide], the MIC in assay [1] (setting [8]) came out at 4 µg/mL (≈ 10.3 µM); in assay [2], 4 µg/mL (≈ 10.3 µM); in assay [3] (setting [9]), 4 µg/mL (≈ 10.3 µM); in assay [4] (setting [10]), 16 µg/mL (≈ 41.3 µM); in assay [5] it was 0.5 µg/mL (≈ 1.29 µM); in assay [6], 4 µg/mL (≈ 10.3 µM). Further, the MIC in assay [7] worked out at 8 µg/mL (≈ 20.6 µM).

On to `Cc1c(N2CC[C@@H]([C@H](C)N)C2)c(F)cc2c(C3=NOS(=O)N3)cc(=O)n(C3CC3)c12` (stereo partly drawn) [Example 41, 7-((R)-3-((S)-1-aminoethyl)pyrrolidin-1-yl)-1-cyclopropyl-6-fluoro-8-methyl-4-(2-oxido-3H-1,2,3,5-oxathiadiazol-4-yl)quinolin-2(1H)-one], for which the MIC in assay [1] (setting [8]) worked out at 4 µg/mL (≈ 9.23 µM); in assay [2] it was 0.5 µg/mL (≈ 1.15 µM); in assay [3] (setting [9]) it was 0.5 µg/mL (≈ 1.15 µM); in assay [4] (setting [10]) it was 16 µg/mL (≈ 36.9 µM); in assay [5], 0.125 µg/mL (≈ 0.288 µM); in assay [6], 4 µg/mL (≈ 9.23 µM). Also, the MIC in assay [7] was 8 µg/mL (≈ 18.5 µM).

Consider `Cc1c(N2CC[C@@H]([C@H](C)N)C2)c(F)cc2c(Cl)cc(=O)n(C3CC3)c12` [Example 44, 7-((R)-3-((S)-1-aminoethyl)pyrrolidin-1-yl)-4-chloro-1-cyclopropyl-6-fluoro-8-methylquinolin-2(1H)-one], for which the MIC in assay [1] (setting [8]) turned out to be 2 µg/mL (≈ 5.5 µM); in assay [2], 0.03 µg/mL (≈ 0.0824 µM); in assay [3] (setting [9]), 0.06 µg/mL (≈ 0.165 µM); in assay [4] (setting [10]), 8 µg/mL (≈ 22 µM); in assay [5] it was 0.03 µg/mL (≈ 0.0824 µM); in assay [6], 4 µg/mL (≈ 11 µM). Further, the MIC in assay [7] stood at 8 µg/mL (≈ 22 µM).

As for `CC(=O)NCc1cc(=O)n(C2CC2)c2c(C)c(N3CC[C@@H]([C@H](C)N)C3)c(F)cc12` [Example 46, N-((7-((R)-3-((S)-1-aminoethyl)pyrrolidin-1-yl)-1-cyclopropyl-6-fluoro-8-methyl-2-oxo-1,2-dihydroquinolin-4-yl)methyl)acetamide], the MIC in assay [1] (setting [8]) was 32 µg/mL (≈ 79.9 µM); in assay [2] it was 2 µg/mL (≈ 4.99 µM); in assay [3] (setting [9]) it was 8 µg/mL (≈ 20 µM); in assay [4] (setting [10]), 32 µg/mL (≈ 79.9 µM); in assay [5], 2 µg/mL (≈ 4.99 µM); in assay [6] it was above 32 µg/mL. For the same compound, the MIC in assay [7] was above 32 µg/mL.

Regarding `Cc1c(N2CC[C@@H]([C@H](C)N)C2)c(F)cc2c(CO)cc(=O)n(C3CC3)c12` [Example 47, 7-((R)-3-((S)-1-aminoethyl)pyrrolidin-1-yl)-1-cyclopropyl-6-fluoro-4-(hydroxymethyl)-8-methylquinolin-2(1H)-one], the MIC in assay [1] (setting [8]) is 16 µg/mL (≈ 44.5 µM); in assay [2], 0.25 µg/mL (≈ 0.696 µM); in assay [3] (setting [9]), 0.25 µg/mL (≈ 0.696 µM); in assay [4] (setting [10]), 16 µg/mL (≈ 44.5 µM); in assay [5], 0.25 µg/mL (≈ 0.696 µM); in assay [6], 4 µg/mL (≈ 11.1 µM). In addition, the MIC in assay [7] was found to be 8 µg/mL (≈ 22.3 µM).

For the compound `COCc1cc(=O)n(C2CC2)c2c(C)c(N3CC[C@@H]([C@H](C)N)C3)c(F)cc12` [Example 48, 7-((R)-3-((S)-1-aminoethyl)pyrrolidin-1-yl)-1-cyclopropyl-6-fluoro-4-(methoxymethyl)-8-methylquinolin-2(1H)-one], the MIC in assay [1] (setting [8]) was found to be 8 µg/mL (≈ 21.4 µM); in assay [2] it was 0.125 µg/mL (≈ 0.335 µM); in assay [3] (setting [9]), 0.125 µg/mL (≈ 0.335 µM); in assay [4] (setting [10]), 32 µg/mL (≈ 85.7 µM); in assay [5], 0.06 µg/mL (≈ 0.161 µM); in assay [6], 16 µg/mL (≈ 42.8 µM). Besides, in assay [7], the MIC stood at 16 µg/mL (≈ 42.8 µM).

In the case of `Cc1c(N2CC[C@@H]([C@H](C)N)C2)c(F)cc2c(OCCN(C)C)cc(=O)n(C3CC3)c12` [Example 49, 7-((R)-3-((S)-1-aminoethyl)pyrrolidin-1-yl)-1-cyclopropyl-4-(2-(dimethylamino)ethoxy)-6-fluoro-8-methylquinolin-2(1H)-one], the MIC in assay [1] (ATCC25922, 20 h) stood at 1 µg/mL (≈ 2.4 µM); in assay [2], 0.25 µg/mL (≈ 0.6 µM); in assay [3] (ATCC29213, 20 h), 0.125 µg/mL (≈ 0.3 µM); in assay [4] (Pseudomonas aeruginosa, PAO1, 20 h, read-out: Antibacterial activity (MIC) NB52019) it was 8 µg/mL (≈ 19.2 µM); in assay [5], 0.06 µg/mL (≈ 0.144 µM); in assay [6] it was 4 µg/mL (≈ 9.6 µM). The MIC in assay [7] was determined as 8 µg/mL (≈ 19.2 µM).

For `CC(=O)N[C@@H](C)[C@@H]1CCN(c2c(F)cc3c(OCCN(C)C)cc(=O)n(C4CC4)c3c2C)C1` [Example 50, N—((S)-1-((R)-1-(1-cyclopropyl-4-(2-(dimethylamino)ethoxy)-6-fluoro-8-methyl-2-oxo-1,2-dihydroquinolin-7-yl)pyrrolidin-3-yl)ethyl)acetamide], the MIC in assay [1] (setting [8]) was 32 µg/mL (≈ 69.8 µM); in assay [2], 2 µg/mL (≈ 4.36 µM); in assay [3] (setting [9]), 1 µg/mL (≈ 2.18 µM); in assay [4] (setting [10]), above 32 µg/mL; in assay [5] it was 0.125 µg/mL (≈ 0.273 µM); in assay [6], above 32 µg/mL. The MIC in assay [7] is above 32 µg/mL.

As to `Cc1c(N2CC[C@@H]([C@H](C)N)C2)c(F)cc2c(OCCN)cc(=O)n(C3CC3)c12` [Example 51, 4-(2-aminoethoxy)-7-((R)-3-((S)-1-aminoethyl)pyrrolidin-1-yl)-1-cyclopropyl-6-fluoro-8-methylquinolin-2(1H)-one], the MIC in assay [1] (setting [8]) was determined as 2 µg/mL (≈ 5.15 µM); in assay [2] it was 0.5 µg/mL (≈ 1.29 µM); in assay [3] (setting [9]), 0.5 µg/mL (≈ 1.29 µM); in assay [4] (setting [10]), 4 µg/mL (≈ 10.3 µM); in assay [5] it was 0.06 µg/mL (≈ 0.154 µM); in assay [6], 2 µg/mL (≈ 5.15 µM). Besides, the MIC in assay [7] was determined as 2 µg/mL (≈ 5.15 µM).

Turning to `Cc1c(N2CC[C@@H]([C@H](C)N)C2)c(F)cc2c(OCCNC(=N)N)cc(=O)n(C3CC3)c12` [Example 53, 1-(2-((7-((R)-3-((S)-1-aminoethyl)pyrrolidin-1-yl)-1-cyclopropyl-6-fluoro-8-methyl-2-oxo-1,2-dihydroquinolin-4-yl)oxy)ethyl)guanidine], the MIC stood at 4 µg/mL (≈ 9.29 µM) in assay [1] (setting [8]); 0.5 µg/mL (≈ 1.16 µM) in assay [2]; 0.5 µg/mL (≈ 1.16 µM) in assay [3] (setting [9]); 16 µg/mL (≈ 37.2 µM) in assay [4] (setting [10]); 0.125 µg/mL (≈ 0.29 µM) in assay [5]; 4 µg/mL (≈ 9.29 µM) in assay [6]. Besides, the MIC in assay [7] amounted to 4 µg/mL (≈ 9.29 µM).

As to `CC(=O)NCCOc1cc(=O)n(C2CC2)c2c(C)c(N3CC[C@@H]([C@H](C)N)C3)c(F)cc12` [Example 54, N-(2-((7-((R)-3-((S)-1-aminoethyl)pyrrolidin-1-yl)-1-cyclopropyl-6-fluoro-8-methyl-2-oxo-1,2-dihydroquinolin-4-yl)oxy)ethyl)acetamide], the MIC in assay [1] (setting [8]) was 32 µg/mL (≈ 74.3 µM); in assay [2], 4 µg/mL (≈ 9.29 µM); in assay [3] (setting [9]) it was 8 µg/mL (≈ 18.6 µM); in assay [4] (setting [10]), 32 µg/mL (≈ 74.3 µM); in assay [5], 4 µg/mL (≈ 9.29 µM); in assay [6], above 32 µg/mL. In assay [7], the MIC was above 32 µg/mL.

The values above are taken from patent US10160726B2, “Quinolone derivatives as antibacterials” (priority 2014, dated 2018).
